The test concerns pathogenic bacteria. In words: MIC by microdilution broth method (NCCLS M7-A4), in vitro antibacterial activity. The format is cell-based. In a few lines:
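Broth microdilution per NCCLS M7-A4: two-fold serial dilutions in cation-adjusted Mueller-Hinton broth, inoculum about 5×10^4 CFU/well. Trays incubated 16–20 h at 35 °C. MIC read by comparing growth against no-compound growth controls.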

Where [1] appears, read: Staphylococcus aureus, Organism A: Staphylococcus aureus OC4172, read-out: MIC.
The mark [2] stands for this setting: Streptococcus pneumoniae, ATCC49619, Organism E: Streptococcus pneumoniae ATCC 49619, read-out: MIC.
The mark [3] stands for this setting: Streptococcus pneumoniae, Organism B: fluoroquinolone-resistant clinical isolate of Streptococcus pneumoniae (QRDR amino acid substitutions).
Setting [4] is: Streptococcus pneumoniae, Organism C: fluoroquinolone-resistant clinical isolate of Streptococcus pneumoniae (QRDR amino acid substitutions).
[5] abbreviates: Streptococcus pneumoniae, Organism D: fluoroquinolone-resistant clinical isolate of Streptococcus pneumoniae (QRDR amino acid substitutions).

Usually MIC stands for the least concentration at which growth counts as inhibited.

Converted amounts (≈) assume the structure as drawn. Like-named read-outs stand apart in the source and are kept apart here.

As to `COc1c(N2CCC/C(=C/CN)C2)c(F)cc2c(=O)c(C(=O)O)cn(C3CC3)c12` [Compound 389, (Z)-7-[3-(2-Amino-ethylidene)-piperidin-1-yl]-1-cyclopropyl--6-fluoro-8-methoxy-4-oxo-1,4-dihydro-quinoline-3-carboxylic acid], the MIC by setting is: under setting [1], ≤ 0.015 µg/mL; under setting [2], 0.06 µg/mL (≈ 0.149 µM); under setting [3], 0.5 µg/mL (≈ 1.25 µM); under setting [4], 1 µg/mL (≈ 2.49 µM); under setting [5], 0.5 µg/mL (≈ 1.25 µM).

As to `COc1c(N2CCC/C(=C\CN)C2)c(F)cc2c(=O)c(C(=O)O)cn(C3CC3)c12` [Compound 390, (E)-7-[3-(2-Amino-ethylidene)-piperidin-1-yl]-1-cyclopropyl-6-fluoro-8-methoxy-4-oxo-1,4-dihydro-quinoline-3-carboxylic acid], the MIC reads like this: under setting [1], 0.06 µg/mL (≈ 0.149 µM); under setting [2], 0.5 µg/mL (≈ 1.25 µM); under setting [4], 2 µg/mL (≈ 4.98 µM); under setting [5], 4 µg/mL (≈ 9.96 µM).

`COc1c(N2CC(=C(C)CN)C2)c(F)cc2c(=O)c(C(=O)O)cn(C3CC3)c12` [Compound 391, 7-[3-(2-Amino-1-methyl-ethylidene)-azetidin-1-yl]-1-cyclopropyl-6-fluoro-8-methoxy-4-oxo-1,4-dihydro-quinoline-3-carboxylic acid]: the MIC reads like this: under setting [1], 0.06 µg/mL (≈ 0.155 µM); under setting [2], 2 µg/mL (≈ 5.16 µM); under setting [3], 8 µg/mL (≈ 20.6 µM); under setting [4], > 16 µg/mL; under setting [5], 8 µg/mL (≈ 20.6 µM).

For `COc1c(N2CCC/C(=C(/C)CN)C2)c(F)cc2c(=O)c(C(=O)O)cn(C3CC3)c12` [Compound 392, (E)-7-[3-(2-Amino-1-methyl-ethylidene)-piperidin-1-yl]-1-cyclopropyl-6-fluoro-8-methoxy-4-oxo-1,4-dihydro-quinoline-3-carboxylic acid], the minimal inhibitory concentration (MIC) is 0.25 µg/mL (≈ 0.602 µM) under setting [1]; 1 µg/mL (≈ 2.41 µM) under setting [2]; 16 µg/mL (≈ 38.5 µM) under setting [3]; > 16 µg/mL under setting [4]; 8 µg/mL (≈ 19.3 µM) under setting [5].

For the molecule `COc1c(N2CCC/C(=C(/Cl)CN)CC2)c(F)cc2c(=O)c(C(=O)O)cn(C3CC3)c12` [Compound 393, (Z)-7-[4-(2-Amino-1-chloro-ethylidene)-azepan-1-yl]-1-cyclopropyl-6-fluoro-8-methoxy-4-oxo-1,4-dihydro-quinoline-3-carboxylic acid], the MIC is, setting by setting: under setting [1], 0.25 µg/mL (≈ 0.556 µM); under setting [2], 0.5 µg/mL (≈ 1.11 µM); under setting [4], 8 µg/mL (≈ 17.8 µM); under setting [5], 2 µg/mL (≈ 4.45 µM).

Turning to `COc1c(N2CCC/C(=C(\Cl)CN)CC2)c(F)cc2c(=O)c(C(=O)O)cn(C3CC3)c12` [Compound 394, (E)-7-[4-(2-Amino-1-chloro-ethylidene)-azepan-1-yl]-1-cyclopropyl-6-fluoro-8-methoxy-4-oxo-1,4-dihydro-quinoline-3-carboxylic acid], the MIC under setting [1] was found to be 0.03 µg/mL (≈ 0.0667 µM); the MIC under setting [2] was determined as 0.5 µg/mL (≈ 1.11 µM); the MIC under setting [3] was found to be 1 µg/mL (≈ 2.22 µM); the MIC under setting [4] is 4 µg/mL (≈ 8.89 µM); the MIC under setting [5] worked out at 1 µg/mL (≈ 2.22 µM).

Regarding `NC/C(F)=C1\CCCN(c2c(F)cc3c(=O)c(C(=O)O)cn(C4CC4)c3c2OC(F)F)C1` [Compound 395, (Z)-7-[3-(2-Amino-1-fluoro-ethylidene)-piperidin-1-yl]-1-cyclopropyl-8-difluoromethoxy-6-fluoro-4-oxo-1,4-dihydro-quinoline-3-carboxylic acid], the MIC reads like this: under setting [1], 0.06 µg/mL (≈ 0.132 µM); under setting [2], 0.5 µg/mL (≈ 1.1 µM); under setting [3], 4 µg/mL (≈ 8.78 µM); under setting [4], 8 µg/mL (≈ 17.6 µM); under setting [5], 0.5 µg/mL (≈ 1.1 µM).

As for `NC/C=C1/CCCN(c2c(F)cc3c(=O)c(C(=O)O)cn(C4CC4)c3c2OC(F)F)C1` [Compound 396, (Z)-7-[3-(2-Amino-ethylidene)-piperidin-1-yl]-1-cyclopropyl-8-difluoromethoxy-6-fluoro-4-oxo-1,4-dihydro-quinoline-3-carboxylic acid], the MIC runs as follows: under setting [1], 0.03 µg/mL (≈ 0.0686 µM); under setting [2], 0.25 µg/mL (≈ 0.572 µM); under setting [3], 2 µg/mL (≈ 4.57 µM); under setting [4], 4 µg/mL (≈ 9.14 µM); under setting [5], 0.5 µg/mL (≈ 1.14 µM).

(Values after patent publication US20090156577A1, “7-AMINO ALKYLIDENYL-HETEROCYCLIC QUINOLONES AND NAPHTHYRIDONES” (priority 2004, published 2009).)
